Results as given in patent US20120108855A1, “INCREASED EXPRESSION OF TRANSHYDROGENASE GENES AND THEIR USE IN ETHANOL PRODUCTION” (UNIVERSITY OF FLORIDA RESEARCH FOUNDATION, INC., priority 2009, published 2012).
Like-named read-outs stand apart in the source and are kept apart here.

Legend:
EMFR9 = assay: pH-controlled xylose fermentation with 5-HMF, EMFR9; format: cell-based, Escherichia coli
Procedure: (§1) Strains and plasmids used in this study have been previously described (70 and 23). These include LY180 (an ethanologenic derivative of E. coli), EMFR9 (furfural-tolerant derivative of LY180), LY180ΔyqhD, LY180ΔdkgA, LY180ΔyqhD ΔdkgA, pLOI4301 containing yqhD. Plasmids pLOI4303 containing dkgA (48), and pLOI4316 containing pntAB (70) were also used. Cultures were grown at 37° C. in AM1 minimal media (23) containing 20 g 1^−1 xylose (solid medium), 50 g l^−1 xylose (Bioscreen C growth analyzer and tube cultures), or 100 g 1^−1 (pH-controlled fermentations).
(§2) For fermentation experiments, seed cultures of LY180 and EMFR9 were grown overnight in small fermentors (37° C., 200 rpm) containing 350 ml of AM1 medium. Broth was maintained at pH 6.5 by the automatic addition of 2 N KOH. Upon reaching mid-log phase, experimental fermenters were inoculated to an initial cell density of 0.1 OD550nm. (33 mg dry cell weight 1^−1). Cell mass (OD550nm) and furan levels were monitored at 12-h intervals as described previously (20).

LY180 [1] = assay: 5-HMF tolerance in tube cultures, LY180, with cysteine supplements; format: cell-based, Escherichia coli
Procedure: FIG. 17. Effect of L-cysteine on 5-HMF tolerance of LY180. Experiments were performed in tube cultures with AM1 medium containing 50 g l^−1 xylose and 5-HMF (24 h incubation). Cultures were supplemented with filter-sterilized L-cysteine as indicated. All data are plotted as a mean with standard deviation (n=4). A. 1.0 g l^−1 5-HMF; B. 2.0 g 1^−1 5-HMF.
Tolerance to HMF was tested using 13×100 mm closed tubes containing 4 ml AM1 and 5-HMF as indicated. When appropriate, antibiotics were included for plasmid maintenance. Tubes were inoculated to an initial density of 0.05 OD550nm. Growth was measured after incubation (60 rpm) for 48 h using a Spectronic 20D+ spectrophotometer (Thermo, Waltham, Mass.). To examine the effects of pntAB on furan tolerance, a multiwall plate containing 400 μl of AM1 (and 5-HMF or furfural) per well was inoculated as above. OD(420-580nm bandwidth) was measured for 72 h using a Bioscreen C growth analyzer (Oy Growth Curves, Helsinki, Finland).

LY180 [2] = assay: pH-controlled xylose fermentation with 5-HMF, LY180; format: cell-based, Escherichia coli; conditions: 1.0 g l^-1 5-HMF, 100 g l^-1 xylose
Procedure: as §1, §2

E. coli LY180 [3] = format: cell-based, Escherichia coli; conditions: for relief of furfural inhibition of growth by alternative sulfur source / furfural resistance (growth of LY180) with individual amino acid: AM1 medium; for furfural resistance (growth of LY180) with individual amino acid: amino acid 0.1 mM, 50 g liter^-1 xylose, 37 C, 48 hours
Procedure: Furfural tolerance was examined by measuring growth in standing tubes with 4 mL total volume of AM1 and 50 g liter^−1 filter-sterilized xylose as described previously (48). Tubes were incubated at 37° C. and measured after 24 hours and 48 hours. Values reported are an average of 4 measurements.
All 20 amino acids were individually tested for their ability to improve the growth of LY180 in AM1 mineral salts medium (FIG. 9A). A concentration of 0.1 mM was selected roughly based on the cellular content of individual amino acids (50).
During growth in AM1 medium containing 1 g liter^−1 furfural, the effects of alternative sulfur sources (L-cysteine, D-cysteine, taurine, and sodium thiosulfate) that enter metabolism at different levels of reduction (FIG. 9D) was compared. Note that 4 NADPH molecules and two reductase enzymes (CysH and CysIJ) are required to fully reduce sulfate prior to assimilation into cysteine. […] D-cysteine cannot be incorporated directly and is first catabolized to H2S (49). Thiosulfate also serves as a source of reduced sulfur for incorporation by CysM (47). Taurine is catabolized to sulfite in the cytoplasm and must be reduced by sulfite reductase (CysIJ and 3 NADPH molecules) prior to assimilation into cysteine (54).

YqhD = YqhD (Escherichia coli, UniProt Q46856); conditions: cited from earlier work
DkgA = DkgA (Escherichia coli, UniProt Q46857); conditions: read-out: apparent Km for NADPH; cited from earlier work
[4] = target: sulfite reductase (CysIJ) (Escherichia coli, UniProt P38038); conditions: read-out: Km for NADPH; cited from earlier work
E. coli LY180 [5] = format: cell-based, Escherichia coli; conditions: amino acid 0.5 mM, 1 g liter^-1 furfural, AM1 medium, 48 hours
LY180 strains = assay: Growth of LY180 strains carrying plasmids in the presence of furfural; format: cell-based, Escherichia coli; conditions: 0.10% furfural, after 48 hours
Procedure: LY 180 strains were grown on LB glucose ampicillin plates overnight and each were used to inoculate a tube of AM1 xylose to 3-4 OD. This culture was immediately used to inoculate […] capped tubes containing 4 mL AM1 5% xylose, ampicillin, and an indicated concentration of furfural to 0.05 initial OD. Cultures were grown in a water bath at 37 C and OD 500 nm readings were taken after 24 and 48 hours.
PntAB is a proton translocating transhydrogenase that is not known to function during fermentative growth but is potentially capable of increasing the pool of NADPH (52). In examples 2 and 3, the E. coli […] transhydrogenase PntAB was cloned into pTrc99a and confirmed by sequencing. PntAB with native ribosomal binding site and rho dependent terminator was polymerase chain reaction (PCR) amplified from E. coli strain LY180 genomic DNA using primers with HindIII digestible ends. The PCR product and pTrc099a were HindIII digested, purified using a Qiagen Qiaprep Spin Miniprep Kit, and ligated together using T4 Quick DNA ligase. After transforming the resulting vector into TOP10F′, the plasmid was extracted and used to transform LY180. Orientation was verified by PCR analysis. The empty vector served as a control. Inducer was added prior to inoculation. The growth of LY180 strains carrying plasmids having increasing expression of pntA and pntB genes was compared (FIG. 2A-2B). […]

E. coli LY180 [6] = assay: Microarray analysis of LY180 after furfural addition; format: cell-based, Escherichia coli
Procedure: Cultures were grown in small fermenters to a density of 670 mg dcw liter^−1. An initial sample was removed that served as a control. Furfural was immediately added from a 50 g liter^−1 aqueous stock (0.5 g liter^−1 final concentration) and incubation continued for 15 minutes prior to a second sampling. Samples were rapidly cooled in an ethanol-dry ice bath, harvested by centrifugation at 4° C., resuspended in Qiagen RNA Later and stored at −80° C. RNA was extracted using a Qiagen RNeasy Mini Kit, treated with DNase I and purified by phenol/chloroform extraction and ethanol precipitation. RNA was sent to NimbleGen (Madison, Wis.) for microarray comparisons using probes designed for E. coli K12. Each sample consisted of pooled material from four fermenters. The complete experiment was performed twice and the data was averaged (8 fermentors). Data was analyzed using ArrayStar (DNA Star, Madison, Wis.) and SimPheny software (Genomatica Inc., San Diego, Calif.). Expression ratios are presented as the average of the two pooled datasets.
Message levels were compared in actively growing cells before and 15 min after the addition of 0.5 g liter^−1 furfural. A water control was also included for comparison. […]

[7] = Stability of furfural in mineral salts medium; format: physicochemical; conditions: 48 incubation at 37 C
Procedure: Protective concentrations of cysteine (0.05 mM) were 200-fold lower than that of 1 g liter^−1 furfural (10 mM).

YqhD, sequence (Q46856 whole entry): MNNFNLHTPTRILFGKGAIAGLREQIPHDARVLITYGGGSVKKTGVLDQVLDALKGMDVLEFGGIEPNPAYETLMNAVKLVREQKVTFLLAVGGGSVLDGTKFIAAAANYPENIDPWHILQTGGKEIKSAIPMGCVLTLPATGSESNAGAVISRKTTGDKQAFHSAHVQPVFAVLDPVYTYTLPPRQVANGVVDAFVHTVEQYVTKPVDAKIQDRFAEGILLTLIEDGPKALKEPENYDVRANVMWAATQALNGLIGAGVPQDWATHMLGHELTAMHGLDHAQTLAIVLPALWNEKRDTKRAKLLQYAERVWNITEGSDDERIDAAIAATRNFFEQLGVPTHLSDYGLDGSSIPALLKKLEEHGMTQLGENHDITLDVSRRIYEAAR
DkgA, sequence (Q46857 whole entry): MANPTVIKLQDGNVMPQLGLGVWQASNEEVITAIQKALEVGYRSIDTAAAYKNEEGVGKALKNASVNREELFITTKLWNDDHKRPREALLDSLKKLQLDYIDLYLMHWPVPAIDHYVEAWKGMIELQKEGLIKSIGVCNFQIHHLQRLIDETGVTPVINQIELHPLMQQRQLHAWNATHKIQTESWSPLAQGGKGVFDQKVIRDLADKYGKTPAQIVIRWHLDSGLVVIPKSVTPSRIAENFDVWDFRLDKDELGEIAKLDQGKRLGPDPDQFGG
sulfite reductase (CysIJ), sequence (P38038 2-599): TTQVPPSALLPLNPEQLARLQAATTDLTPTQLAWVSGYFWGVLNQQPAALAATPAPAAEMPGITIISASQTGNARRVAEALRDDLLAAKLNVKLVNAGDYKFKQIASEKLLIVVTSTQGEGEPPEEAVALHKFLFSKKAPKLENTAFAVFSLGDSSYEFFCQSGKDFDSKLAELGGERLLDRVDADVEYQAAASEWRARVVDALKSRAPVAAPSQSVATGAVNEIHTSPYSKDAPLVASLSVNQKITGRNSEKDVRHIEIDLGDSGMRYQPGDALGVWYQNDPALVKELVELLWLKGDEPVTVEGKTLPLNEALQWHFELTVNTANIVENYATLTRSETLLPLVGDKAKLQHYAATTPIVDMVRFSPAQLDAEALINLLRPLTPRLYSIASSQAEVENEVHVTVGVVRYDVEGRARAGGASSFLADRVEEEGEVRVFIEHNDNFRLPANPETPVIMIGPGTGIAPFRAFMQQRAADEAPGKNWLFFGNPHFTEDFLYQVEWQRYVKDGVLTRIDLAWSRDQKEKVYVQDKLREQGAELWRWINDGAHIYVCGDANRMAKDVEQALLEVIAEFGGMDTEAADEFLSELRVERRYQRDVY
sulfite reductase (CysIJ), sequence (P17846 2-570, further chain): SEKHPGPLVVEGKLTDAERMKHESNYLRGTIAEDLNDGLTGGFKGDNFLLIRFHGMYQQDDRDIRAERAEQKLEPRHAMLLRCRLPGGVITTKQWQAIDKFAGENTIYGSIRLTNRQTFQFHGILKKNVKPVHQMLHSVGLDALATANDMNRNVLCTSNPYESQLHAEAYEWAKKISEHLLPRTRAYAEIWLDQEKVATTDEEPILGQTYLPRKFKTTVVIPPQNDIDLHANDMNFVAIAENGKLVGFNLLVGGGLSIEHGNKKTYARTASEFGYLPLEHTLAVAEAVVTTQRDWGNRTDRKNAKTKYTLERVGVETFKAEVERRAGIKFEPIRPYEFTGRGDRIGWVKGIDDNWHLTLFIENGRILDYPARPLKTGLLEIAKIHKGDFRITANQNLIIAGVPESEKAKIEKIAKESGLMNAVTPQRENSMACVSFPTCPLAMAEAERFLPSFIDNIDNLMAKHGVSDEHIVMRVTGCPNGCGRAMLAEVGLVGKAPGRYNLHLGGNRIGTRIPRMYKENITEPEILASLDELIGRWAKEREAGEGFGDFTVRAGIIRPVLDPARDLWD

O=Cc1ccc(CO)o1 [5-HMF, 5-hydroxymethyl furfural]
effect on cell yield or ethanol yield of EMFR9 (EMFR9; 1.0 g l^-1 5-HMF, fermentation): no detrimental effect | ethanol production and growth of EMFR9 (EMFR9; 2.5 g 5-HMF l^-1, fermentation): slowed | time to completion of ethanol production and growth of EMFR9 (EMFR9; 2.5 g 5-HMF l^-1, fermentation): 96 h | growth of LY180 (LY180 [1]; 1 g l^-1 5-HMF, tube cultures, 24 h): partially inhibited | growth of LY180 (LY180 [2]): completely inhibited

N[C@H](CS)C(=O)O [D-cysteine]
relief of furfural inhibition of growth by alternative sulfur source (E. coli LY180 [3]; 1 g liter^-1 furfural): effective

NC(=O)C1=CN([C@@H]2O[C@H](COP(=O)(O)OP(=O)(O)OC[C@H]3O[C@@H](n4cnc5c(N)ncnc54)[C@H](OP(=O)(O)O)[C@@H]3O)[C@@H](O)[C@H]2O)C=CC1 [NADPH]
Km (YqhD; read-out: Km for NADPH): 8 µM | Km (YqhD; read-out: apparent Km for NADPH): 8 µM | Km (DkgA): 23 µM | Km [4]: 80 µM

N=C(N)NCCC[C@H](N)C(=O)O [arginine]
furfural resistance (growth of LY180) with individual amino acid (E. coli LY180 [3]; 1 g liter^-1 furfural): improved furfural resistance

N[C@@H](CS)C(=O)O [cysteine, L-cysteine]
growth of LY180 with cysteine supplement (LY180 [1]; 100 uM cysteine, 1 g l^-1 5-HMF): completely restored | growth of LY180 with cysteine supplement (LY180 [1]; 100 uM or 1000 uM cysteine, 2.5 g l^-1 5-HMF): not restored | effect of cysteine supplements on the MIC for 5-HMF (LY180 [1]; LY180): did not increase | protective concentration against furfural (E. coli LY180 [3]; 1 g liter^-1 furfural (10 mM)): 0.05 mM | relief of furfural inhibition of growth by alternative sulfur source (E. coli LY180 [3]; 1 g liter^-1 furfural): effective | furfural resistance (growth of LY180) with individual amino acid (E. coli LY180 [3]; 1 g liter^-1 furfural): improved furfural resistance | improvement in furfural resistance (E. coli LY180 [3]; cysteine 0.01 mM): No measurable improvement | density to which LY180 grew (E. coli LY180 [3]; cysteine 0.05 mM, 1 g liter^-1 furfural): 0.8 g/L | furfural resistance (growth of LY180) with individual amino acid (E. coli LY180 [5]): most effective

O=Cc1ccco1 [furfural]
growth of LY180 strains other than pTrc99a-pntAB forward (LY180 strains): substantially stopped growing | genes with expression altered two-fold or greater (E. coli LY180 [6]; 0.5 g liter^-1 furfural, 15 min): approximately 400 genes | up-regulation of YqhD and DkgA (mRNA) (E. coli LY180 [6]; addition of furfural, parent LY180): over 5 fold | furfural in mineral salts medium, by characteristic spectrum [7]: remained unchanged

OCC(O)CO [glycerol]
effect on furfural tolerance (E. coli LY180 [3]; glycerol 1.0 to 20 g liter^-1, data not included): no effect

N[C@@H](Cc1c[nH]cn1)C(=O)O [histidine]
furfural resistance (growth of LY180) with individual amino acid (E. coli LY180 [3]; 1 g liter^-1 furfural): improved furfural resistance

CSCC[C@H](N)C(=O)O [methionine]
furfural resistance (growth of LY180) with individual amino acid (E. coli LY180 [3]; 1 g liter^-1 furfural): improved furfural resistance

N[C@@H](CO)C(=O)O [serine]
furfural resistance (growth of LY180) with individual amino acid (E. coli LY180 [3]; 1 g liter^-1 furfural): improved furfural resistance

NCCS(=O)(=O)O [taurine]
relief of furfural inhibition of growth by alternative sulfur source (E. coli LY180 [3]; 1 g liter^-1 furfural): not effective

O=S(O)(O)=S [thiosulfate, sodium thiosulfate]
relief of furfural inhibition of growth by alternative sulfur source (E. coli LY180 [3]; 1 g liter^-1 furfural): effective
